Measurements published in US20210403419A1, “SERINE DERIVATIVE COMPOUND FOR THE PREVENTION OR TREATMENT OF CENTRAL NERVOUS SYSTEM DISEASES” (Astrogen Co., Ltd., priority 2019, published 2021).

Key:
[1] = tested on: hippocampal neuronal cell HT-22; assay: MTT cell viability / neuronal cell proliferation assay; details: for effect on cell proliferation in complete medium: L-serine versus AST-009, 25 to 10,000 μg
Procedure: Murine hippocampal neuronal cell line HT-22 was cultured in Dulbecco's Modified Eagle's Medium (DMEM) supplemented with 10% fetal bovine serum (FBS) and 100 μg/ml gentamycin at 37° C. under a 5% CO2 atmosphere. In this Example, cells at passage 15 or below were used.
Cell proliferation activity was examined by an MTT assay for measuring cell viability. First, hippocampal neuronal cell HT-22 (1×10^4 cells) was incubated with each of serially diluted sample solutions in 96-well plates for 16 hours, and then mixed with 50 μl of MTT (3-(4,5-dimethyl thiazolyl)2,5-diphenyl tetrazolium bromide) solution (1.1 mg/ml), followed by additional incubation for 4 hours. The formed formazan crystal was dissolved in 150 μl of […], and the optical density (OD) at 540 nm was measured using a plate reader.

[2] = tested on: mouse hippocampal neuronal HT-22 cells treated with DMNQ; assay: Neuronal cell protection against DMNQ-induced oxidative stress (DiOC6 staining); assay type: cell-based; details: DMNQ 10 μM, DMNQ alone 77.8%
Procedure: First, 1×10^6 cells were washed three times with 2% FBS-containing PBS solution, and the washed cells were suspended in 70% ethanol and fixed at 4° C. for 1 hour. The fixed cells were washed twice with the same solution, suspended in 250 μl of RNase A solution (50 μg/ml concentration), and incubated at 37° C. for 30 minutes to remove RNA from the cells. Then, DNA in the cells was stained at room temperature for 20 minutes by adding 250 μl of 1.12% sodium citrate buffer (pH 8.45) containing 50 μg/ml of propidium iodide. The cells were analyzed with a flow cytometer (FACS Calibur), and the distribution of the cell cycle was examined based on the content of stained DNA in each cell.
The cell protective activity of the selected drug (AST-009) against DMNQ-induced oxidative stress was compared by DiOC6 staining. […] Thus, it could be seen that the cell protective activity of AST-009 was much stronger than that of L-serine.

[3] = Blood-brain barrier (BBB) permeability in ICR mice; assay type: in vivo; details: 500 mg/kg
Procedure: Each of L-serine and AST-099 was administered to 7-week-old ICR mice (n=3) at a dose of 500 mg/kg, and then the brain tissue and the blood were collected. The concentrations of L-serine distributed in the blood and the brain were quantified using LC/MS, and the BBB permeability was compared between the drugs by calculating the ratio of the concentration of L-serine in the brain to that in the blood.

[4] = L-serine quantified by LC/MS, ICR mice, n=3

Row | Concentration, Brain tissue [3, 4] [ng/g] | Concentration, Plasma [3, 4] [ng/mL] | Kp ([3]; mouse, brain/plasma, ratio of L-serine concentration in brain to that in blood, ICR mice, n=3, read-out: Cbrain/Cplasma) | Cbrain/Cplasma ([3]; ratio of L-serine concentration in brain to that in blood, ICR mice, n=3) | SMILES | HT-22 cell proliferation (cell viability, MTT) ([1]; L-serine/glycerin-deficient medium, treatment concentration of 10,000 μg/ml (=10 mg/ml)) | effect on cell proliferation in complete medium [1] | cell damage rate (membrane potential loss) ([2]; compound 0.5 mg/ml) [%] | cell damage rate (membrane potential loss) ([2]; compound 1 mg/ml) [%] | cell damage rate (membrane potential loss) ([2]; compound 5 mg/ml) [%] | Concentration, Brain tissue ([3]; mouse, in vivo) [ng/g] | Concentration, Plasma ([3]; mouse, in vivo) [ng/mL] | effect on cell proliferation at high concentration ([1]; L-serine/glycerin-deficient medium, concentration of 1 mg/ml or more)
1 | – | – | – | – | NCCCC[C@H](NC(=O)[C@H](CO)NC(=O)[C@H](CO)NC(=O)[C@H](CO)NC(=O)O)C(=O)O [AST-009, H-Lys-Ser-Ser-Ser-OH] | up to 139% | no significant difference | 64.3 | 45.5 | 20.0 | 7944 ± 427 | 1205 ± 120 | –
2 | 7314 ± 2071 | 2121 ± 1192 | 4.16 ± 2.03 | 4.16 ± 2.03 | N[C@@H](CO)C(=O)O [L-serine] | – | no significant difference | 59.9 | 58.7 | 54.5 | – | – | slightly inhibited cell proliferation
